Laboratory results taken from patent publication US9694016B2 (Novartis AG, priority 2013, dated 2017).
pIC50: −log10 of the molar value.

target: b-Raf (V600E) (Homo sapiens (Human), UniProt P15056, V600E); settings: read-out: b-Raf IC-50; AlphaScreen, 60 min pre-incubation, 3 hours reaction
Sequence (P15056 whole entry V600E): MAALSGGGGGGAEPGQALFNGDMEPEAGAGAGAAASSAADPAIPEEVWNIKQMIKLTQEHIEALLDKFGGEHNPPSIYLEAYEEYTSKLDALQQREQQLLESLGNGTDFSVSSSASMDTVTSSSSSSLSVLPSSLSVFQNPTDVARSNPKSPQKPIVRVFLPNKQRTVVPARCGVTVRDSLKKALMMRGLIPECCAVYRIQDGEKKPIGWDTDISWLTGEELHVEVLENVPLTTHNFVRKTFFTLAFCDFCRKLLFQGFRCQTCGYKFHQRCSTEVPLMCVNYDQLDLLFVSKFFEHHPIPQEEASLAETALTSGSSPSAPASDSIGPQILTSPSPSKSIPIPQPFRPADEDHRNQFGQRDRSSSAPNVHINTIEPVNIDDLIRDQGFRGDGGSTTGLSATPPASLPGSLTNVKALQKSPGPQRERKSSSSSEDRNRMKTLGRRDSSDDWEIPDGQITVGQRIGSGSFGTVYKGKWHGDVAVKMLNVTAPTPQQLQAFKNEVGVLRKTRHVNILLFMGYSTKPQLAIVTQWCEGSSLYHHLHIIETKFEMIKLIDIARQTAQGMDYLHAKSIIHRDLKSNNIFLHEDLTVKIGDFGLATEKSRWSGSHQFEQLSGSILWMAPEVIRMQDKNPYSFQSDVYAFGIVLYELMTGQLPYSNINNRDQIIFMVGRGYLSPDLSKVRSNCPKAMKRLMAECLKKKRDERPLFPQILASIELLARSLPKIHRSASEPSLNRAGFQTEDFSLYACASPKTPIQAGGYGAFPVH

pIC50 | SMILES
8.39 | CCNc1nc(-c2cc(NC(=O)c3ccnc(C(C)(C)O)c3)ccc2C)cc(N2CCOCC2)n1 [Example 705, N-(3-(2-(ethylamino)-6-morpholinopyrimidin-4-yl)-4-methylphenyl)-2-(2-hydroxypropan-2-yl)isonicotinamide]
8.62 | CCNc1nc(-c2cc(NC(=O)c3ccnc(C(C)(C)C)c3)ccc2C)cc(N2CCOCC2)n1 [Example 696, 2-(tert-butyl)-N-(3-(2-(ethylamino)-6-morpholinopyrimidin-4-yl)-4-methylphenyl)isonicotinamide]
8.85 | Cc1ccc(NC(=O)c2ccnc(C(F)(F)F)c2)cc1-c1cc(N2CCOCC2)c(OCCO)nn1 [Example 585, N-(3-(6-(2-hydroxyethoxy)-5-morpholinopyridazin-3-yl)-4-methylphenyl)-2-(trifluoromethyl)isonicotinamide]
8.60 | CCOc1nnc(-c2cc(NC(=O)c3cccc(C(F)(F)F)c3)cnc2C)cc1N1CCOC[C@@H]1C [Example 571, (S)—N-(5-(6-ethoxy-5-(3-methylmorpholino)pyridazin-3-yl)-6-methylpyridin-3-yl)-3-(trifluoromethyl)benzamide]
9.10 | Cc1ccc(NC(=O)c2cc(C(F)(F)F)ccn2)cc1-c1cc(N2CCOCC2)c(OC(C)C)nn1 [Example 594, N-(3-(6-isopropoxy-5-morpholinopyridazin-3-yl)-4-methylphenyl)-4-(trifluoromethyl)picolinamide]

The next lines start with the compound.

SMILES | pIC50
Cc1ncc(NC(=O)c2cccc(C(F)(F)F)c2)cc1-c1ccc(S(C)(=O)=O)c(N2CCOCC2)c1 [Example 687, N-(6-methyl-5-(4-(methylsulfonyl)-3-morpholinophenyl)pyridin-3-yl)-3-(trifluoromethyl)benzamide] | 9.10
Cc1ccc(NC(=O)c2ccnc(C3COC3)c2)cc1-c1cc(N2CCOCC2)n(C)c(=O)c1 [Example 478, N-(4-methyl-3-(1-methyl-6-morpholino-2-oxo-1,2-dihydropyridin-4-yl)phenyl)-2-(oxetan-3-yl)isonicotinamide] | 8.60
Cc1ncc(NC(=O)c2cccc(C(F)F)c2)cc1-c1cc(N2CCOCC2)n(C)c(=O)c1 [Example 506, 3-(difluoromethyl)-N-(1′,2-dimethyl-6′-morpholino-2′-oxo-1′,2′-dihydro-[3,4′-bipyridin]-5-yl)benzamide] | 8.74
Cc1ccc(NC(=O)c2ccnc(C(C)(C)C#N)c2)cc1-c1cc(N2CCOCC2(C)C)c(=O)n(C)n1 [Example 671, 2-(2-cyanopropan-2-yl)-N-(3-(5-(3,3-dimethylmorpholino)-1-methyl-6-oxo-1,6-dihydropyridazin-3-yl)-4-methylphenyl)isonicotinamide] | 7.59
Cc1ccc(NC(=O)c2cnnc(C(C)(C)C#N)c2)cc1-c1cc(N2CCOCC2)c(=O)n(C)n1 [Example 646, 6-(2-cyanopropan-2-yl)-N-(4-methyl-3-(1-methyl-5-morpholino-6-oxo-1,6-dihydropyridazin-3-yl)phenyl)pyridazine-4-carboxamide] | 8.08

same assay, conditions: read-out: b-Raf IC-50; AlphaScreen, 60 min pre-incubation, reaction 3 hours at room temperature

pIC50 | SMILES
8.50 | Cc1ccc(NC(=O)c2cc(C(C)(C)C#N)ccn2)cc1-c1cc(N2CCOCC2)n(C)c(=O)c1 [Example 900, 4-(2-cyanopropan-2-yl)-N-(4-methyl-3-(1-methyl-6-morpholino-2-oxo-1,2-dihydropyridin-4-yl)phenyl)picolinamide]
8.63 | Cc1ccc(NC(=O)c2ccnc(C(F)(F)F)c2)cc1-c1cc(NC[C@@H](C)O)nc(N2CCOCC2)c1 [Example 991, (R)—N-(3-(2-((2-hydroxypropyl)amino)-6-morpholinopyridin-4-yl)-4-methylphenyl)-2-(trifluoromethyl)isonicotinamide]
8.79 | Cc1ncc(NC(=O)c2cccc(C(F)(F)F)c2)cc1-c1cnc(OCC2COCCO2)c(N2CCOCC2)c1 (stereo not drawn) [Example 992]
8.43 | Cc1ncc(NC(=O)c2cc(C(C)(C)F)ccn2)cc1-c1cnc(OC2CC3(COC3)C2)c(N2CCOCC2)c1 [Example 968, N-(6′-(2-oxaspiro[3.3]heptan-6-yloxy)-2-methyl-5′-morpholino-[3,3′-bipyridin]-5-yl)-4-(2-fluoropropan-2-yl)picolinamide]
9.40 | Cc1ccc(NC(=O)c2cccc(C(F)(F)F)c2)cc1-c1nc2c(c(N3CCOCC3)n1)S(=O)(=O)CC2 [Example 857, N-(4-methyl-3-(4-morpholino-5,5-dioxido-6,7-dihydrothieno[3,2-d]pyrimidin-2-yl)phenyl)-3-(trifluoromethyl)benzamide]
8.87 | Cc1ccc(NC(=O)c2ccnc(C(C)(F)F)c2)cc1-c1cnc(OC(C)C)c(N2CCOCC2)c1 [Example 945, 2-(1,1-difluoroethyl)-N-(3-(6-isopropoxy-5-morpholinopyridin-3-yl)-4-methylphenyl)isonicotinamide]

Second part, the compound before the results:

SMILES | pIC50
CCC(F)(F)c1cc(C(=O)Nc2cnc(C)c(-c3cc(NCCO)nc(N4CCOCC4)c3)c2)ccn1 [Example 1058, 2-(1,1-difluoropropyl)-N-(2′-((2-hydroxyethyl)amino)-2-methyl-6′-morpholino-[3,4′-bipyridin]-5-yl)isonicotinamide] | 7.97
Cc1ncc(NC(=O)c2ccnc(C(C)(F)F)c2)cc1-c1cc(N2CCOCC2)c2nccn2n1 [Example 871, 2-(1,1-difluoroethyl)-N-(6-methyl-5-(8-morpholinoimidazo[1,2-b]pyridazin-6-yl)pyridin-3-yl)isonicotinamide] | 9.22
Cc1ncc(NC(=O)c2ccnc(C(C)(C)O)c2)cc1-c1cc(N2CCOCC2)nc(N2CC(O)C2)c1 [Example 1082, N-(2′-(3-hydroxyazetidin-1-yl)-2-methyl-6′-morpholino-[3,4′-bipyridin]-5-yl)-2-(2-hydroxypropan-2-yl)isonicotinamide] | 7.24
Cc1ncc(NC(=O)c2cc(C(C)(C)O)ccn2)cc1-c1cnc(OC2CC3(COC3)C2)c(N2CCOCC2)c1 [Example 969, N-(6′-(2-oxaspiro[3.3]heptan-6-yloxy)-2-methyl-5′-morpholino-[3,3′-bipyridin]-5-yl)-4-(2-hydroxypropan-2-yl)picolinamide] | 7.74
Cc1ncc(NC(=O)c2ccnc(C3CC3)c2)cc1-c1cc(C2COCCO2)nc(N2CCOCC2)c1 (stereo not drawn) [Example 1169, N-(2′-(1,4-dioxan-2-yl)-2-methyl-6′-morpholino-[3,4′-bipyridin]-5-yl)-2-cyclopropylisonicotinamide] | 8.52
Cc1ccc(NC(=O)c2ccnc(C(F)(F)F)c2)cc1-c1cc(NCC2CCOC2)nc(N2CCOCC2)c1 (stereo not drawn) [Example 1055, N-(4-methyl-3-(2-morpholino-6-(((tetrahydrofuran-3-yl)methyl)amino)pyridin-4-yl)phenyl)-2-(trifluoromethyl)isonicotinamide] | 8.93
Cc1ccc(NC(=O)c2ccnc(C(C)(C)O)c2)cc1-c1cc(NCCO)nc(N2CCOCC2)c1F [Example 1010, N-(3-(3-fluoro-6-((2-hydroxyethyl)amino)-2-morpholinopyridin-4-yl)-4-methylphenyl)-2-(2-hydroxypropan-2-yl)isonicotinamide] | 7.54

same assay, conditions: read-out: b-Raf IC-50; Table 2; AlphaScreen, 3 hours reaction

pIC50 | SMILES
8.64 | Cc1ccc(NC(=O)c2ccnc(C(C)(F)F)c2)cc1-c1cc(N2CCOCC2)c(=O)n(CCC#N)c1 [Example 334, N-(3-(1-(2-cyanoethyl)-5-morpholino-6-oxo-1,6-dihydropyridin-3-yl)-4-methylphenyl)-2-(1,1-difluoroethyl)isonicotinamide]
8.72 | Cc1ccc(NC(=O)c2ccnc(C(C)(C)O)c2)cc1-c1cnc(OC(F)F)c(N2CCOCC2)c1 [Example 226, N-(3-(6-(difluoromethoxy)-5-morpholinopyridin-3-yl)-4-methylphenyl)-2-(2-hydroxypropan-2-yl)isonicotinamide]
8.55 | Cc1ccc(NC(=O)c2cnnc(C(F)(F)F)c2)cc1-c1cc(N2CCOCC2)c(=O)n(C)c1 [Example 361, N-(4-methyl-3-(1-methyl-5-morpholino-6-oxo-1,6-dihydropyridin-3-yl)phenyl)-6-(trifluoromethyl)pyridazine-4-carboxamide]

The remaining lines, values behind:

SMILES | pIC50
CCOc1cccc(C(=O)Nc2cnc(C)c(-c3cc(N4CCOCC4)c(=O)n(C)c3)c2)c1 [Example 397, N-(1′,2-dimethyl-5′-morpholino-6′-oxo-1′,6′-dihydro-[3,3′-bipyridin]-5-yl)-3-ethoxybenzamide] | 8.00
Cn1cc(-c2cc(NC(=O)c3cccc(C(F)F)c3)ccc2C#N)cc(N2CCOCC2)c1=O [Example 420, N-(4-cyano-3-(1-methyl-5-morpholino-6-oxo-1,6-dihydropyridin-3-yl)phenyl)-3-(difluoromethyl)benzamide] | 5.44
CCn1cc(C(=O)Nc2ccc(C)c(-c3cc(N4CCOCC4)c(=O)n(C)c3)c2)c(C)n1 [Example 365, 1-ethyl-3-methyl-N-(4-methyl-3-(1-methyl-5-morpholino-6-oxo-1,6-dihydropyridin-3-yl)phenyl)-1H-pyrazole-4-carboxamide] | 7.07
Cc1ccc(NC(=O)c2ccnc(C3COC3)c2)cc1-c1cc(N2CCOCC2)c(=O)n(C)c1 [Example 356, N-(4-methyl-3-(1-methyl-5-morpholino-6-oxo-1,6-dihydropyridin-3-yl)phenyl)-2-(oxetan-3-yl)isonicotinamide] | 8.41
Cc1ncc(NC(=O)c2cccc(C(F)(F)F)c2)cc1-c1cnc(O[C@H]2CC[C@H](O)CC2)c(N2CCOCC2)c1 [Example 316, N-(6′-(((1r,4r)-4-hydroxycyclohexyl)oxy)-2-methyl-5′-morpholino-[3,3′-bipyridin]-5-yl)-3-(trifluoromethyl)benzamide] | 8.51
Cc1ncc(NC(=O)c2ccnc(C(C)(C)F)c2)cc1-c1cnc(OC2CCOCC2)c(N2C3CCC2COC3)c1 [Example 279, N-(5′-(3-oxa-8-azabicyclo[3.2.1]octan-8-yl)-2-methyl-6′-((tetrahydro-2H-pyran-4-yl)oxy)-[3,3′-bipyridin]-5-yl)-2-(2-fluoropropan-2-yl)isonicotinamide] | 5.49
Cc1ncc(NC(=O)c2ccnc(C(C)(C)C#N)c2)cc1-c1cnc(OCC(F)F)c(N2CCOCC2)c1 [Example 228, 2-(2-cyanopropan-2-yl)-N-(6′-(2,2-difluoroethoxy)-2-methyl-5′-morpholino-[3,3′-bipyridin]-5-yl)isonicotinamide] | 8.33
